≈ marks a conversion by molar mass, not a printed value.
What was measured:
HepG2 cells = assay: HepG2 cytotoxicity
MbtA = conditions: 44.2 μM MbtA, ligand 0.75 mM
HepG2 cytotoxicity = conditions: human, HepG2 cells
M. tuberculosis H37Rv = assay: MIC determination against M. tuberculosis H37Rv in liquid medium; assay type: cell-based; conditions: Mycobacterium tuberculosis, 120 h, read-out: H37Rv MIC90

SMILES | IC50 (RAW 264.7 cells) | HepG2 cytotoxicity, IC50 towards cells grown in both media (HepG2 cells; glucose and galactose media) | Ratio (Glu/Gal) (HepG2 cells; ratio of HepG2 IC50 in glucose to galactose medium (mitochondrial toxicity)) | Response in STD and Water-LOGSY experiments (MbtA) | IC50 at 2 days (HepG2 cytotoxicity) | MIC90 (M. tuberculosis H37Rv)
O=[N+]([O-])c1cc(C(F)(F)F)ccc1NCCc1c[nH]c2ccc(O)cc12 [Compound 5, 5-hydroxy-indol-3-ethylamino-(2-nitro-4-trifluoromethyl)benzene] | 29 µM | relatively low cytotoxicity | 1.2 | positive responses |  | 
CO[C@H]1/C=C/O[C@@]2(C)Oc3c(C)c(O)c4c(O)c(c(/C=N/N5CCN(C)CC5)c(O)c4c3C2=O)NC(=O)/C(C)=C\C=C\[C@H](C)[C@H](O)[C@@H](C)[C@@H](O)[C@@H](C)[C@H](OC(C)=O)[C@@H]1C [Rifampicin, reference compound] |  |  |  |  | > 100 µM | 0.1 µM (≈ 0.0823 µg/mL)
